Reference: patent publication US6203822A, “Gallium-containing compounds for the treatment of infections caused by intracellular pathogens and pathogens causing chronic pulmonary infection” (priority 1996, dated 2001)

Experiments:
Format in all cases: cell-based
[1] = system: M. tuberculosis in human alveolar macrophages; assay: M. tuberculosis in human alveolar macrophages, gallium nitrate with or without anti-tuberculous antibiotics
Procedure: The gallium-containing compounds can also be tested for their ability to inhibit intracellular pathogens in tissue culture assays. In general, in these assays, the macrophages are placed in culture and incubated with the intracellular pathogen at an approximate cell to pathogen ratio of preferably at least 1:1 to about 1:5 cells:pathogen. Exemplary culture conditions are provided in the assays detailed in the Examples. For assays assessing M. tuberculosis infection, freshly adherent monocytes, 12 day-old adherent MDMs, or freshly adherent alveolar macrophages are incubated with M. tuberculosis, MAI or other intracellular bacteria at a ratio of about 1:1 to about 1:5 (phagocyte:bacterium). For M. tuberculosis or MAI, the bacteria are incubated with the phagocyte for 2 hr at 37° C. in RPMI/HEPES media with 2.5% serum or human serum albumin (serum-free). The cells are washed to remove non-adherent bacteria and monolayers are replated with RPMI containing 1% autologous serum (to maintain phagocyte viability but not to sustain extracellular growth of bacteria). Gallium-containing compounds, such as gallium nitrate, with, or without, other agents such as antibiotics, cytokines etc., are added about 24 hr. later and mycobacterial growth in cell lysates is then assessed over the next several days either by the radiometric BACTEC system or by colony-forming units on agarose plates. In each experiment, growth is assessed relative to control monolayers where no drug has been added.
Human alveolar macrophages were purified from healthy non-smoking adult volunteers and placed in monolayer culture. M. tuberculosis infected cells were treated with gallium nitrate as described in Example 2. Antituberculous antibiotics were added to wells alone or with gallium nitrate at 500 μM 24 h after M. tuberculosis infection. Antituberculous antibiotics tested included streptomycin (2.016 μg/ml), isoniazid (0.1 μg/ml), rifampin (2.0 μg/ml), and ethambutol (2.52 μg/ml) and the combination of antibiotics was denoted as SIRE. Antibiotics were obtained in lyophilized form from BACTEC. The antibiotics were reconstituted in sterile water per package instructions. With reference to FIG. 3, SIRE refers to combinations of streptomycin, isoniazid, rifampin and ethambutol while IR refers to combinations of Isoniazid and rifampin.
Infected macrophages were cultured for 24 h, 48 h, or 120 h. Growth index readings of combined supernatants and cell lysates were measured in the BACTEC 460 TB system. […] Since these antibiotics have a number of unpleasant side effects that are reduced at reduced concentrations of the drugs, combined therapies that permit these antibiotics to be administered at lower doses when combined with gallium nitrate is significant and may help to promote better drug compliance in patients infected with M. tuberculosis.

M. tuberculosis = assay: Regrowth of M. tuberculosis in BACTEC system after gallium nitrate treatment (kill versus stasis)
Procedure: Example 4 and Example 5 detail exemplary methods used to determine whether the mycobacteria strains were killed by the addition of gallium nitrate. […] The bacteria were resuspended in 7H9 broth (BBL Microbiology Systems) or onto agar plates without gallium nitrate and incubated under conditions known to promote bacterial growth. In Example 4, the growth index for these cultures was assessed after 6 weeks to determine whether bacteria are inhibited or killed. […] In Example 5, M. tuberculosis-infected macrophages cell lysates were plated onto the surface of media able to support M. tuberculosis growth. Colony forming unit assays were counted to assess bacterial death or inhibition.
In Examples 2 and 3, gallium nitrate inhibited growth of M. tuberculosis. To determine whether the mycobacteria strains were killed by gallium nitrate or whether various concentrations of gallium nitrate were bacteriostatic, samples from the assay were tested in the BACTEC system. […] The bacteria, if present, was resuspended in 7H9 broth without gallium nitrate and incubated in the BACTEC system under conditions known in the art to promote bacterial growth.

[2] = system: P. aeruginosa strain PA01; assay: Growth inhibition of P. aeruginosa in iron-supplemented succinate medium; details: for A600 (growth): 1 μM ferric chloride, 7 h, control A600=0.297
Procedure: In another embodiment of this invention, P. aeruginosa, the principle cause of chronic lung infections in patients with cystic fibrosis, was also determined to be susceptible to gallium-containing compounds. The PA01 strain of P. aeruginosa only grew in an iron-restricted succinate based broth medium (Cox, CD. Infect. Immun. 52:263-270, 1986) that included exogenous Ferric chloride or iron chelated to either of the siderophores pyochelin or pyoverdin at concentrations of 1 μM or greater. The addition of gallium nitrate to the iron supplemented medium inhibited P. aeruginosa growth (see Example 15). Growth was measure by monitoring the culture medium absorbance at 600 nm.
P. aeruginosa strain PA01 was suspended in succinate-based medium (Cox, C. D., Infect. Immun. 52:262-270, 1986) to an optical density of approximately 0.040 at 600 nm in the absence (negative control) or presence of 1 μM ferric chloride (positive growth control). To some aliquots of both positive and negative control conditions, gallium nitrate was added at varying concentrations. The bacterial suspensions were placed at 37° C. for 7 h and growth was determined by measuring absorbance at 600 nm. […] With the inclusion of ferric chloride the concentration of organisms increased nearly eight fold A600=0.297).

## O=[N+]([O-])[O-].O=[N+]([O-])[O-].O=[N+]([O-])[O-].[Ga+3] [gallium nitrate]
[1]; gallium nitrate 500 μM plus suboptimal antibiotics (1/10 the standard concentrations), human alveolar macrophages
  augmentation of growth inhibition by antibiotics: augments the ability of suboptimal concentrations of antibiotics
[1]; suboptimal streptomycin, isoniazid, rifampin and ethambutol or suboptimal Isoniazid and rifampin
  enhancement of antibiotic growth inhibition: clear-cut enhancement in inhibition of M. tuberculosis growth
M. tuberculosis; growth index assessed after 6 weeks
  killing of bacteria (growth index after 6 weeks): the bacteria were killed
M. tuberculosis; resuspended in 7H9 broth without gallium nitrate, BACTEC
  bacterial regrowth after gallium nitrate treatment: bacteria did not grow
[2]; 1 μM gallium nitrate
  growth inhibition in words: Slight inhibition
  A600 (growth): 0.270
[2]; 10 μM gallium nitrate
  decrease of growth: more than 50%
  A600 (growth): 0.130
[2]; 100 μM and 10 μM gallium nitrate, ferric chloride supplemented
  P. aeruginosa growth inhibition: Significant inhibition
[2]; 100 μM gallium nitrate
  growth inhibition in words: completely inhibited
  A600 (growth): 0.043
